The results in this text go back to PMC6677754, “In silico design and optimization of selective membranolytic anticancer peptides” (Scientific Reports, 2019).

SMILES strings stand for the structures. Where two headings read alike, the source gives them in different places. Peptide text beside a SMILES is read from it.

The test system of series [1] is MCF7 breast adenocarcinoma cell line. Put plainly: Cell viability assay (MTT). Type of series: cell-based, human. How it is done: (§1) 10% fetal bovine serum and 1% penicillin-streptomycin (Thermo Fisher Scientific, Waltham, MA, USA). The cultures were kept at 37°C in a 5% CO2 atmosphere incubator (Thermo Fisher Scientific, Waltham, MA, USA) and split every two to three days to new culture flasks. Cells no older than 20 passages were used for experiments.
(§2) For splitting, the cell culture media was aspirated, the cells were washed with 0.01 M phosphate buffered saline (PBS, Gibco, Thermo Fisher Scientific, Waltham, MA, USA) and trypsin-EDTA (trypsin - ethylene diamine tetraacetic acid, Fisher scientific, UK) was added to the cell layer to detach them from the flask surface. After incubation for 2 min at 37°C, cells were resuspended with an equal volume of DMEM media and centrifuged at 310 g for 5 min at 4°C. After removal of the supernatant the cells were resuspended in DMEM cell media and split into new cell culture flasks at a 1/3 to 1/5 ratio.
(§3) Determination of the anticancer peptides half effective concentration (EC50) was performed by a 3-(4,5-dimethylthiazol-2-yl)-2,5-diphenyltetrazolium bromide (MTT) assay, as described elsewhere21. Briefly, […] were seeded in each well of a 96-well plate and left to adhere and […]
(§4) sulfoxide (DMSO, Fisher Scientific, UK) at an intermediate concentration of 1 mM. The peptides were then diluted in a 2-fold dilution series starting at 100 μM with DMEM culture media. Cells were incubated with the peptide solutions for 24 h. After this time, the cell media was removed and the cells were incubated for 1 h with a 0.5 mg mL−1 MTT solution to allow enough time for formazan crystal formation (Sigma Aldrich, Steinheim, Germany). The supernatant was removed and 100 μL of DMSO were added into each well to resuspend the formazan crystals.
(§5) After manually shaking the plates to completely dissolve the crystals, the absorbance was measured at 540 nm in a Tecan Infinity M1000 spectrophotometer. The cell viability was determined based on the quantification of the color intensity in each culture well, considering the absorbance obtained by the control media without peptides as a 100% survival. The resultant sigmoidal curves were analyzed with the drc22 R package using a log-logistic model

Series [2] relates to A549 lung adenocarcinoma cell line. Put plainly: Cell viability assay (MTT). Type of series: cell-based, human. The method, then: as §1, §2, §3, §4, §5
Series [3] concerns noncancer HDMEC primary cells (human dermal microvascular endothelial cells). Kind of series: Cell viability assay (MTT). Format: cell-based. Particulars: Table S2; noncancer primary cells; MTT, 24 h; mean ± sd; N = 2 independent measurements with six technical replicates each (Figs S6-S8). The method, then:
as §1, §2, §3, §4, §5

For a further series, the system named is human erythrocytes. Put plainly: Hemolysis assay. Type of series: cell-based. Particulars: red cells of human, 1 h. The method, then:
Human erythrocytes were freshly ordered at the Blutspende Zürich. Erythrocytes were washed 3 times with a […] phosphate buffered saline (PBS, Gibco, Thermo Fisher Scientific, Waltham, MA, USA) solution centrifuging at 800 g for 10 min or until the supernatant appeared clear to remove the blood plasma. A 5% v/v erythrocytes : PBS solution was prepared for direct use. For HC50 determination, peptides were dissolved in PBS at an intermediate concentration of 1 mM. A dilution series of the peptide from 200 to 6.25 μM was plated in a round-bottomed 96-well plate in triplicates, with a volume of 50 μL per well. PBS buffer and a solution of 0.1% Triton-X-100 (Fisher Chemical, Loughborough, UK) in PBS were employed as negative and positive controls, respectively. 50 μL of the 5% erythrocyte solution were added in each well and the plates were incubated at 37°C for 1 h. After this time, 100 μL PBS were added to each well and plates were centrifuged at 800 g for 10 min. 100 μL of the supernatant were transferred to a flat-bottomed 96-well plate and the absorbance was measured at 540 nm in a Tecan Infinity M1000 spectrophotometer plate reader. The hemolysis percentage was calculated, considering the absorbance values of the Triton and PBS wells as 100% and 0% hemolysis, respectively.
The resultant sigmoidal curves were analyzed with the drc22 R package using a log-logistic model with 3 fixed parameters to obtain the HC50 values. […]
NCI-60 screening procedure […]
Each peptide was tested in a 5-concentration assay, starting at 10^-4 M and diluting 10-fold to the lowest 10^-8 M concentration. The peptides were incubated for 48 h and the cell concentration was assayed by using the sulforhodamine B assay25 and optical density measurements. The growth inhibition (GI50) value24, measures the growth inhibitory power of the drug agent. The GI50 value is the concentration of the test drug for which the condition in Eq. S1 is met, where T is the optical density of the test well after a 48-h exposure to the peptide, T0 the optical density before applying the peptide drug and C the control optical density of a well where no peptide was applied.

[4] abbreviates: 10^4 cells per well, 24 h with peptide, 2-fold dilution series from 100 µM in DMEM, absorbance 540 nm, mean ± std, N = 3.
The mark [5] stands for this setting: MTT, 10^4 cells per well, 24 h with peptide, 2-fold dilution series from 100 µM in DMEM, absorbance 540 nm, mean ± std, N = 3, read-out: A549 EC50/µM.
Where [6] appears, read: Table S2, 24 h, mean ± sd, N = 2 independent measurements with six technical replicates each (Figs S6-S8).
Where [7] appears, read: Table S2, MTT, 24 h, mean ± sd, N = 2 independent measurements with six technical replicates each (Figs S6-S8), read-out: A549 EC50 /µM.

`CC[C@H](C)[C@H](NC(=O)[C@H](CCCNC(=N)N)NC(=O)[C@H](CCCCN)NC(=O)[C@H](CC(C)C)NC(=O)[C@H](Cc1c[nH]c2ccccc12)NC(=O)[C@H](C)N)C(=O)N[C@@H](CCCCN)C(=O)N[C@@H](CCCCN)C(=O)N[C@@H](Cc1ccccc1)C(=O)N[C@@H](CC(C)C)C(=O)N[C@@H](CCCCN)C(=O)N[C@@H](C)C(=O)N[C@@H](CC(C)C)C(=O)N[C@@H](Cc1ccccc1)C(=O)N[C@@H](Cc1c[nH]c2ccccc12)C(=O)N[C@H](C(=O)N[C@@H](Cc1c[nH]c2ccccc12)C(=O)N[C@H](C(=O)N[C@@H](Cc1c[nH]c2ccccc12)C(N)=O)C(C)C)C(C)C` [Gradient2] (H-AWLKRIKKFLKALFWVWVW-NH2): the EC50 is 19 ± 1.8 µM in series [1] (setting [4]); 107 µM in series [2] (Fig. S11, experimental replicate 1 (top panel), fit value (error in brackets), N = 6 technical replicates, MTT 24 h, read-out: EC50); 152 µM in series [2] (Fig. S11, experimental replicate 2 (middle panel), fit value (error in brackets), N = 6 technical replicates, MTT 24 h, read-out: EC50); 487 µM in series [2] (Fig. S11, experimental replicate 3 (bottom panel), fit value (error in brackets), N = 6 technical replicates, MTT 24 h, read-out: EC50); above 50 µM in series [2] (setting [5]).

Turning to `CC[C@H](C)[C@H](NC(=O)[C@@H](NC(=O)[C@H](CC(C)C)NC(=O)[C@@H](NC(=O)[C@H](CC(N)=O)NC(=O)[C@H](CCC(=O)O)NC(=O)[C@H](Cc1ccccc1)NC(=O)[C@H](CC(N)=O)NC(=O)[C@H](CC(=O)O)NC(=O)[C@@H](NC(=O)[C@@H](NC(=O)[C@@H](N)CCCCN)C(C)C)C(C)C)[C@@H](C)CC)[C@@H](C)CC)C(N)=O` [Gradient3] (H-KVVDNFENILII-NH2; N-terminus assumed), the EC50 in series [1] (setting [4]) and in series [2] (setting [5]) was above 50 µM each time.

As for `CC[C@H](C)[C@H](NC(=O)[C@H](CC(N)=O)NC(=O)[C@@H]1CCCN1C(=O)[C@@H](NC(=O)[C@H](C)NC(=O)[C@H](C)NC(=O)[C@H](CC(N)=O)NC(=O)[C@@H](NC(=O)[C@@H](N)CCCNC(=N)N)C(C)C)[C@@H](C)CC)C(=O)N[C@H](C(=O)N[C@H](C(N)=O)C(C)C)[C@@H](C)CC` [Gradient4] (H-RVNAAIPNIIV-NH2; N-terminus assumed), the EC50 in series [1] (setting [4]) and in series [2] (setting [5]) was above 50 µM throughout.

Take `CC[C@H](C)[C@H](NC(=O)[C@H](CC(C)C)NC(=O)[C@H](CCCCN)NC(=O)[C@H](CC(C)C)NC(=O)[C@@H](NC(=O)[C@H](C)NC(=O)CNC(=O)[C@H](C)NC(=O)[C@H](CC(C)C)NC(=O)[C@H](CCCCN)NC(=O)CNC(=O)[C@H](CC(C)C)NC(=O)[C@H](CCCCN)NC(=O)[C@@H](NC(=O)[C@H](Cc1c[nH]c2ccccc12)NC(=O)[C@H](CC(C)C)NC(=O)[C@@H](N)Cc1ccccc1)[C@@H](C)CC)C(C)C)C(=O)N[C@@H](CC(C)C)C(=O)NCC(=O)N[C@@H](CC(C)C)C(=O)N[C@@H](CCCCN)C(=O)N[C@@H](CCCCN)C(=O)N[C@H](C(=O)N[C@H](C(N)=O)C(C)C)C(C)C` [Helical1] (H-FLWIKLGKLAGAVLKLILGLKKVV-NH2): the EC50 in series [1] (setting [4]) came out at 4.4 ± 1.3 µM; in series [2] (setting [5]) it was 8.3 ± 2 µM.

Take `CC[C@H](C)[C@H](NC(=O)[C@H](C)NC(=O)[C@H](Cc1c[nH]c2ccccc12)NC(=O)[C@H](CC(C)C)NC(=O)CN)C(=O)N[C@@H](C)C(=O)N[C@H](C(=O)N[C@@H](CCCCN)C(=O)N[C@@H](C)C(=O)NCC(=O)N[C@@H](CCCCN)C(=O)N[C@H](C(=O)N[C@H](C(=O)N[C@@H](CC(C)C)C(=O)N[C@@H](CCCCN)C(=O)N[C@@H](CC(C)C)C(=O)N[C@H](C(=O)N[C@H](C(=O)N[C@@H](Cc1ccccc1)C(=O)N[C@H](C(=O)N[C@@H](Cc1c[nH]c2ccccc12)C(=O)N[C@H](C(=O)N[C@@H](CCCNC(=N)N)C(=O)N[C@H](C(N)=O)C(C)C)[C@@H](C)CC)[C@@H](C)CC)C(C)C)[C@@H](C)CC)[C@@H](C)CC)C(C)C)C(C)C` [Helical2] (H-GLWAIAVKAGKVILKLIVFIWIRV-NH2; N-terminus assumed): the EC50 in series [1] (setting [4]) and in series [2] (setting [5]) was above 50 µM in each case.

Turning to `CC[C@H](C)[C@H](NC(=O)[C@H](CC(=O)O)NC(=O)[C@H](CC(C)C)NC(=O)[C@H](CC(C)C)NC(=O)CN)C(=O)N[C@@H](C)C(=O)NCC(=O)NCC(=O)N[C@@H](CC(N)=O)C(=O)N[C@@H](C)C(=O)N[C@@H](CCC(=O)O)C(=O)N[C@H](C(=O)N[C@@H](CC(C)C)C(=O)N[C@@H](C)C(=O)NCC(=O)N[C@@H](Cc1c[nH]cn1)C(=O)N[C@@H](C)C(=O)N[C@H](C(N)=O)C(C)C)[C@@H](C)O` [Helical3] (H-GLLDIAGGNAETLAGHAV-NH2; N-terminus assumed), the EC50 in series [1] (setting [4]) and in series [2] (setting [5]) was above 50 µM throughout.

Consider `CC[C@H](C)[C@H](NC(=O)[C@@H](NC(=O)[C@H](CC(=O)O)NC(=O)[C@H](Cc1ccccc1)NC(=O)[C@H](CC(C)C)NC(=O)CN)C(C)C)C(=O)NCC(=O)N[C@@H](CO)C(=O)N[C@@H](CCC(N)=O)C(=O)N[C@@H](C)C(=O)NCC(=O)NCC(=O)N[C@@H](C)C(=O)N[C@@H](C)C(=O)N1CCC[C@H]1C(=O)N[C@@H](Cc1c[nH]cn1)C(=O)N[C@@H](Cc1ccccc1)C(=O)N[C@@H](CC(C)C)C(=O)NCC(N)=O` [Helical4] (H-GLFDVIGSQAGGAAPHFLG-NH2; N-terminus assumed), for which the EC50 in series [1] (setting [4]) and in series [2] (setting [5]) was above 50 µM in each case.

In the case of `CC[C@H](C)[C@H](NC(=O)[C@@H]1CCCN1C(=O)[C@H](Cc1c[nH]cn1)NC(=O)[C@H](Cc1ccccc1)NC(=O)[C@H](CCCCN)NC(=O)[C@H](CCCCN)NC(=O)[C@H](Cc1ccccc1)NC(=O)[C@@H](NC(=O)[C@@H](N)CCCNC(=N)N)C(C)C)C(=O)N[C@@H](Cc1ccc(O)cc1)C(=O)N[C@@H](Cc1c[nH]cn1)C(=O)N[C@@H](CCCNC(=N)N)C(=O)N[C@H](C(=O)N[C@@H](Cc1c[nH]c2ccccc12)C(=O)N[C@@H](CCCNC(=N)N)C(=O)N[C@@H](CC(C)C)C(=O)N[C@@H](Cc1c[nH]c2ccccc12)C(=O)NCC(=O)N[C@@H](Cc1c[nH]cn1)C(=O)N[C@@H](CC(C)C)C(N)=O)C(C)C` [Off1] (H-RVFKKFHPIYHRVWRLWGHL-NH2), the EC50 in series [3] is 56 ± 7 µM; in series [1] (setting [6]) it was 27.4 ± 0.5 µM; in series [2] (setting [7]), 49 ± 2 µM. Further, in the series on human erythrocytes, the “Eryhtr. HC50 /µM” value is reported as above 200 µM.

For the molecule `CC(C)C[C@H](NC(=O)[C@H](CCCCN)NC(=O)CNC(=O)[C@H](Cc1ccccc1)NC(=O)[C@H](CC(C)C)NC(=O)[C@H](CCC(=O)O)NC(=O)[C@H](Cc1c[nH]c2ccccc12)NC(=O)[C@@H]1CCCN1C(=O)[C@H](CCCNC(=N)N)NC(=O)[C@H](CCCNC(=N)N)NC(=O)[C@H](Cc1ccc(O)cc1)NC(=O)[C@H](Cc1ccccc1)NC(=O)[C@@H]1CCCN1C(=O)[C@H](CCCNC(=N)N)NC(=O)[C@H](Cc1ccccc1)NC(=O)[C@H](CCCCN)NC(=O)[C@H](CCCCN)NC(=O)[C@H](Cc1ccccc1)NC(=O)[C@@H](NC(=O)[C@@H](N)CCC(N)=O)C(C)C)C(N)=O` [Off2.1] (H-QVFKKFRPFYRRPWELFGKL-NH2), the EC50 was 173 ± 1 µM in series [3], 91 ± 2 µM in series [1] (setting [6]) and above 100 µM in series [2] (setting [7]). In the series with human erythrocytes, the “Eryhtr. HC50 /µM” value was above 200 µM.
